Where a name gives a salt, the structure may show the parent alone. Some results are limits rather than exact numbers.

The target in one assay is T1, human platelet PDE-V (Homo sapiens, UniProt O76074).
T1 construct: Human platelet cGMP-PDE was separated from other isozymes in human platelets; from tissue; host or cells: human platelets
Kind of assay: cGMP-Phosphodiesterase (PDE) assay, enzymatic inhibitory test. The format is biochemical.
Settings: not given
The method, then: cGMP-Phosphodiesterase (PDE) Assay
Human platelet cGMP-PDE was separated from other isozymes in human platelets by a modification of the method of Thompson et. al. (see Cyclic Nucleotide Phosphodiesterase (PDE), in Methods of Enzymatic analysis, Vol 4, p127-234, 1984). In enzyme inhibition assays, the test compounds were dissolved in DMSO and then diluted with assay buffer (50 mM Tris-HCl, 0.077 mg/ml dithiothreitol and 10 mg/ml snake venom, 1 mM EGTA, pH 8.0), at final concentrations ranging from 10^−10 to 10^−6 M. Assays were performed at 0.1 μM substrate ([^3H]-cGMP) concentration, at 30° C. for 10 minutes using enzyme dilutions which gave 10-20% hydrolysis of substrate. Each assay was initiated by addition of substrate and terminated by addition of anion exchange resin (Dowex® 1-X8, 250 mg/mg) followed by centrifugation for 10 minutes (3000 rpm, at 4° C.). Radioactivity of supernatant (^3H-GMP) was assayed by liquid scintillation counting.
`CC[C@H](CO)Nc1ccc([N+](=O)[O-])cc1C(=O)NCc1ccc(Cl)c([N+](=O)[O-])c1` [(R)-N-(4-Chloro-3-nitrobenzyl)-2-[1-(hydroxymethyl)propylamino]-5-nitrobenzamide] returned an IC50 of under 0.01 µM.

The assay is the same for the next values; noted with them: human platelet PDE-V; 0.1 μM [3H]-cGMP substrate, 30° C., 10 minutes; read-out: Inhibitory activity IC50.
As to `COc1ccc(CNC(=O)c2cc([N+](=O)[O-])ccc2N[C@H]2CC[C@H](N)CC2)cc1OC` [2-[(trans-4-Aminocyclohexyl)amino]-N-(3,4-dimethoxybenzyl)-5-nitrobenzamide], the IC50 is under 0.01 µM.

Turning to `COc1ccc(CNC(=O)c2cc([N+](=O)[O-])ccc2N[C@H]2CC[C@H](NC(=NC(=O)OC(C)(C)C)NC(=O)OC(C)(C)C)CC2)cc1OC` [2-{trans-4-[2,3-bis(tert-butoxycarbonyl)guanidino]cyclohexylamino}-N-(3,4-dimethoxybenzyl)-5-nitrobenzamide], the IC50 was under 0.01 µM. Still for that read-out and setting: under `O=C(NCc1ccc2c(c1)OCO2)c1cc([N+](=O)[O-])ccc1NC1CCSCC1` [5-Nitro-N-(1,3-benzodioxol-5-ylmethyl)-2-(tetrahydro-2H-thiopyran-4-ylamino)benzamide] stands under 0.01 µM. For `COc1ccc(CNC(=O)c2cc(Br)ccc2NC2CCCC2)cc1Cl` [5-bromo-N-(3-chloro-4-methoxybenzyl)-2-(cycloperitylamino)benzamide hydrochloride], the IC50 is under 0.01 µM.

Turning to `O=C1CCC(Nc2ccc([N+](=O)[O-])cc2C(=O)NCc2ccc3c(c2)OCO3)CC1` [5-nitro-2-(4-oxocyclohexylamino)-N-(1,3-benzodioxol-5-ylmethyl)benzamide], the IC50 was under 0.01 µM.

In the case of `O=C(NCc1ccc2c(c1)OCO2)c1cc([N+](=O)[O-])ccc1NC1CCNCC1` [5-nitro-2-(4-piperidinylamino)-N-(1,3-benzodioxol-5-ylmethyl)benzamide], the IC50 was under 0.01 µM.

In the case of `CC[C@H](CO)Nc1ccc([N+](=O)[O-])cc1C(=O)NCc1ccc2c(c1)OCO2` [(R)-2-(1-Ethyl-2-hydroxyethylamino)-5-nitro-N-(1,3-benzodioxol-5-ylmethyl)benzamide], the IC50 was under 0.01 µM. In the case of `C[C@H](CO)Nc1ccc([N+](=O)[O-])cc1C(=O)NCc1ccc(-c2ccccc2)cc1` [(R)-2-(2-Hydroxy-1-methylethyl)amino-5-nitro-N-(4-phenybenzyl)benzamide], the IC50 was under 0.01 µM.

With `COC(=O)[C@@H](C)Nc1ccc([N+](=O)[O-])cc1C(=O)NCc1ccc2c(c1)OCO2` [(R)-2-[1-(Methoxycarbonyl)ethylamino]-5-nitro-N-(1,3-benzodioxol-5-ylmethyl)benzamide], the IC50 is under 0.01 µM. On to `O=C(NCc1ccc2c(c1)OCO2)c1cc([N+](=O)[O-])ccc1N[C@@H]1CCOC1` [(R)-5-Nitro-2-(tetrahydro-3-furanylamino)-N-(1,3-benzodioxol-5-ylmethyl)benzamide], for which the IC50 is under 0.01 µM. Still for that read-out and setting: under `CC(C)[C@@H](CO)Nc1ccc([N+](=O)[O-])cc1C(=O)NCc1ccc2c(c1)OCO2` [(S)-2-[1-(Hydroxymethyl)-2-methylpropylamino]-5-nitro-N-(1,3-benzodioxol-5-ylmethyl)benzamide] stands under 0.01 µM.

With `CC[C@@H](CCl)Nc1ccc([N+](=O)[O-])cc1C(=O)NCc1ccc2c(c1)OCO2` [(S)-2-[1-(chloromethyl)propylamino]-5-nitro-N-(1,3-benzodioxol-5-ylmethyl)benzamide], the IC50 is under 0.01 µM. Turning to `COc1ccc(CNC(=O)c2cc([N+](=O)[O-])ccc2N[C@H](CO)CNC=O)cc1OC` [(S)-N-(3,4-Dimethoxybenzyl)-2-[1-(formamidomethyl)-2-hydroxyethylamino]-5-nitrobenzamide], the IC50 is under 0.01 µM. Regarding `COc1ccc(CNC(=O)c2cc([N+](=O)[O-])ccc2NC2CCCC2)c(Cl)c1` [N-(2-Chloro-4-methoxybenzyl)-2-(cyclopentyrlamino)-5-nitrobenzamide], the IC50 is under 0.01 µM. Regarding `COc1ccc(Cl)c(CNC(=O)c2cc([N+](=O)[O-])ccc2N[C@H]2CC[C@@H](O)CC2)c1` [N-(2-Chloro-5-methoxybenzyl)-2-(cis-4-hydroxycyclohexylamino)-5-nitrobenzamide], the IC50 is under 0.01 µM.

Take `O=C(NCc1ccccc1Cl)c1cc([N+](=O)[O-])ccc1NC1CCCC1` [N-(2-Chlorobenzyl)-2-cyclopentylamino-5-nitrobenzamide]: the IC50 is under 0.01 µM.

Consider `COc1ccc(CNC(=O)c2cc([N+](=O)[O-])ccc2NC2CCNCC2)cc1OC` [N-(3,4-Dimethoxybenzyl)-5-nitro-2-(4-piperidinylamino)benzamide], for which the IC50 is under 0.01 µM. For `O=C(NCc1ccc2c(c1)OCCO2)c1cc([N+](=O)[O-])ccc1N[C@H]1CC[C@H](O)CC1` [N-(3,4-Ethylenedioxybenzyl)-2-(trans-4-hydroxycyclohexylamino)-5-nitrobenzamide], the IC50 is under 0.01 µM. For the compound `COc1ccc(CNC(=O)c2cc([N+](=O)[O-])ccc2NC2COC(C)(C)OC2)cc1OC` [N-(3,4-dimethoxybenzyl)-2-(2,2-dimethyl-1,3-dioxan-5-ylamino)-5-nitrobenzamide], the IC50 was under 0.01 µM.

With `COc1ccc(CNC(=O)c2cc([N+](=O)[O-])ccc2N[C@H]2CC[C@H](NC(=N)N)CC2)cc1OC` [N-(3,4-dimethoxybenzyl)-2-(trans-4-guanidinocyclohexylamino)-5-nitrobenzamide hydrochloride], the IC50 was under 0.01 µM. Regarding `COc1ccc(CNC(=O)c2cc([N+](=O)[O-])ccc2NC2COC(=O)OC2)cc1OC` [N-(3,4-dimethoxybenzyl)-5-nitro-2-(2-oxo-1,3-dioxan-5-ylamino)benzamide], the IC50 was under 0.01 µM. On the same count and under the same terms, next, `CCCNC(=O)N[C@H]1CC[C@H](Nc2ccc([N+](=O)[O-])cc2C(=O)NCc2ccc(OC)c(OC)c2)CC1` [N-(3,4-dimethoxybenzyl)-5-nitro-2-[trans-4-(3-propylureido)cyclohexylamino]benzamide]: under 0.01 µM; `COc1c(Cl)cc(CNC(=O)c2cc([N+](=O)[O-])ccc2N[C@H]2CC[C@H](O)CC2)cc1Cl` [N-(3,5-Dichloro-4-methoxybenzyl)-2-(trans-4-hydroxycyclohexylamino)-5-nitrobenzamide]: under 0.01 µM; `COc1ccc(CNC(=O)c2cc(C(F)(F)F)ccc2NC(CO)CO)cc1Cl` [N-(3-Chloro-4-methoxybenzyl)-2-[2-hydroxy-1-(hydroxymethyl)ethylamino]-5-(trifluoromethyl)benzamide]: under 0.01 µM. Still for that read-out and setting: next, `O=C(NCc1cccc(Cl)c1)c1cc([N+](=O)[O-])ccc1NC1CCCC1` [N-(3-Chlorobenzyl)-2-(cyclopentylamino)-5-nitrobenzamide]: under 0.01 µM. On to `COc1ccc(CNC(=O)c2cc([N+](=O)[O-])ccc2NC(CO)CO)cc1F` [N-(3-Fluoro-4-methoxybenzyl)-2-[2-hydroxy-1-(hydroxynethyl)ethylamino]-5-nitrobenzamide], for which the IC50 is under 0.01 µM. Turning to `Nc1ccc(CNC(=O)c2cc([N+](=O)[O-])ccc2NC2CCCC2)cc1` [N-(4-Aminobenzyl)-2-(cyclopentylamino)-5-nitrobenzamide], the IC50 is under 0.01 µM. On the same count and under the same terms, under `O=C(NCc1ccc(Br)cc1)c1cc([N+](=O)[O-])ccc1NC1CCCC1` [N-(4-Bromobenzyl)-2-(cyclopentylamino)-5-nitrobenzamide] stands under 0.01 µM; under `CCOc1cc(CNC(=O)c2cc([N+](=O)[O-])ccc2N[C@H]2CC[C@@H](O)CC2)ccc1Cl` [N-(4-Chloro-3-ethoxybenzyl)-2-(cis-4-hydroxycyclohexylamino)-5-nitrobenzaride], under 0.01 µM.

Usually IC50 stands for the point on the concentration scale where inhibition reaches its midpoint.

(Values after patent publication US6384080B1, “Anthranilic acid derivatives as inhibitors of the cGMP-phosphodiesterase” (Fujisawa Pharmaceutical Co., Ltd., priority 1998, dated 2002).)
